Measurements from US20230089867A1, “CYCLIC PENTAMER COMPOUNDS AS PROPROTEIN CONVERTASE SUBTILISIN/KEXIN TYPE 9 (PCSK9) INHIBITORS FOR THE TREATMENT OF METABOLIC DISORDER” (Novartis AG, priority 2018, published 2023).

Target: human PCSK9 (Homo sapiens, UniProt Q8NBP7)
Test: PCSK9 ligand binding TR-FRET assay (interference with binding of human PCSK9 to human LDLR)
Settings: for Max % inhibition: PCSK9 FRET assay, efficacy (Amax), 100% = 1 uM unlabeled human PCSK9, 0% = DMSO; for IC50: TR-FRET, human PCSK9 Alexa Fluor 647 / human LDLR extracellular domain-Europium Kryptate, read-out: PCSK9 FRET Assay IC50
How it was run: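 Threefold compound dilutions were pre-incubated 30 min with PCSK9, after which 4 nM Europium Kryptate-tagged human LDLR ectodomain was added for a further 2 h.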

Chain of human PCSK9 (Q8NBP7 153-692): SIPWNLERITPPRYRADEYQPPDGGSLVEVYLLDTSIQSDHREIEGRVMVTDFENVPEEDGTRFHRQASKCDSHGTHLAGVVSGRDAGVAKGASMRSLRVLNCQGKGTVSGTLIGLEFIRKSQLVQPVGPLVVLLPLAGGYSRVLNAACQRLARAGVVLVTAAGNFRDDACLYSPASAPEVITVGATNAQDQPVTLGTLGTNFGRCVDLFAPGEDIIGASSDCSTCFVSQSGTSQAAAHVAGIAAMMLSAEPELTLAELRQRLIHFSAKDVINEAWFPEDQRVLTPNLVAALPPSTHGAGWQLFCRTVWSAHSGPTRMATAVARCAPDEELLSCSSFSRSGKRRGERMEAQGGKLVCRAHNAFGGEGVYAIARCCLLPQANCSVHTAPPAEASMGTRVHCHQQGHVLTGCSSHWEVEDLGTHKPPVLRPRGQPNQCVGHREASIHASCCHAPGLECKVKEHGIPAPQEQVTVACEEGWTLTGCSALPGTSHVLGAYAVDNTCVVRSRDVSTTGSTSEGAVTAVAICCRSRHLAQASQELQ
Chain of human PCSK9 (Q8NBP7 31-152 partner limits assumed): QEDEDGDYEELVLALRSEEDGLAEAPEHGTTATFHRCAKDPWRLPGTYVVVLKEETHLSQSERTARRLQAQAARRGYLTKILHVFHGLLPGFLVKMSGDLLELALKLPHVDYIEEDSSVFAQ

| Structure (SMILES) | Max % inhibition [%] | IC50 [nM] |
| --- | --- | --- |
| COC[C@@H]1NC(=O)[C@H](CCCN)N(Cc2ccc(Cl)cc2Oc2ccc(-c3cnc(CN(C)C)n3C)cc2)C(=O)C[C@@H](Cc2ccccc2)C(=O)N(C)[C@@H](C)CNC(=O)C[C@H](Cc2ccc(Cl)cc2)N(C)C1=O [Compound 192, (2S,5S,8S,13S,16R)-2-(3-aminopropyl)-16-benzyl-1-(4-chloro-2-(4-(2-((dimethylamino)methyl)-1-methyl-1H-imidazol-5-yl)phenoxy)benzyl)-8-(4-chlorobenzyl)-5-(methoxymethyl)-7,13,14-trimethyl-1,4,7,11,14-pentaazacyclooctadecane-3,6,10,15,18-pentaone] | 97.97 | 107 |
| COC[C@@H]1NC(=O)[C@H](C)N(Cc2ccc(Cl)cc2Oc2ccc(-c3cnc(C4=CCOCC4)n3C)cc2)C(=O)C[C@@H](Cc2ccccc2)C(=O)N(C)[C@@H](C)CNC(=O)C[C@H](Cc2ccc(Cl)cc2)N(C)C1=O [Compound 271, (2S,5S,8S,13S,16R)-16-benzyl-1-(4-chloro-2-(4-(2-(3,6-dihydro-2H-pyran-4-yl)-1-methyl-1H-imidazol-5-yl)phenoxy)benzyl)-8-(4-chlorobenzyl)-5-(methoxymethyl)-2,7,13,14-tetramethyl-1,4,7,11,14-pentaazacyclooctadecane-3,6,10,15,18-pentaone] | 84.13 | 6.9 |
| COC[C@@H]1NC(=O)[C@H](C)N(Cc2ccc(Cl)cc2Oc2ccc(-n3cnc([C@@H](C)N(C)C)c3C)cc2)C(=O)C[C@@H](Cc2ccccc2)C(=O)N(C)[C@@H](C)[C@H](C)NC(=O)C[C@H](Cc2ccc(Cl)cc2)N(C)C1=O [Compound 270, (2S,5S,8S,12S,13S,16R)-16-benzyl-1-(4-chloro-2-(4-(4-((R)-1-(dimethylamino)ethyl)-5-methyl-1H-imidazol-1-yl)phenoxy)benzyl)-8-(4-chlorobenzyl)-5-(methoxymethyl)-2,7,12,13,14-pentamethyl-1,4,7,11,14-pentaazacyclooctadecane-3,6,10,15,18-pentaone] | 106.63 | 2.7 |
| CCC(CC)[C@@H]1CC(=O)N(Cc2ccc(Cl)cc2Oc2ccc(-c3cnc(CN(C)C)n3C)cc2)[C@@H](C)C(=O)N[C@@H](COC)C(=O)N(C)[C@@H](Cc2ccc(Cl)cc2)CC(=O)NC[C@H](C)N(C)C1=O [Compound 40, (2S,5S,8S,13S,16S)-1-(4-chloro-2-(4-(2-((dimethylamino)methyl)-1-methyl-1H-imidazol-5-yl)phenoxy)benzyl)-8-(4-chlorobenzyl)-5-(methoxymethyl)-2,7,13,14-tetramethyl-16-(pentan-3-yl)-1,4,7,11,14-pentaazacyclooctadecane-3,6,10,15,18-pentaone] | 104.99 | 99.6 |
| CCOC(=O)CCCN(CCCC(=O)OCC)CCC[C@H]1C(=O)N[C@@H](COC)C(=O)N(C)[C@@H](Cc2ccc(Cl)cc2)CC(=O)N[C@H]2CCCC[C@@H]2N(C)C(=O)[C@H](Cc2ccccc2)CC(=O)N1Cc1ccc(Cl)cc1Oc1ccc(-c2cnc(CN(C)C)n2C)cc1 [Compound 267, diethyl 4,4′-((3-((4S,7S,10S,14R,16aS,20aS)-14-benzyl-11-(4-chloro-2-(4-(2-((dimethylamino)methyl)-1-methyl-1H-imidazol-5-yl)phenoxy)benzyl)-4-(4-chlorobenzyl)-7-(methoxymethyl)-5,16-dimethyl-2,6,9,12,15-pentaoxodocosahydrobenzo[l][1,4,7,11,14]pentaazacyclooctadecin-10-yl)propyl)azanediyl)dibutanoate] | 93.76 | 7.1 |
| C[C@H]1CNC(=O)C[C@H](Cc2ccc(Cl)cc2)NC(=O)[C@H](CF)NC(=O)[C@H](C)N(Cc2ccc(Cl)cc2Oc2ccc(-c3cnc(CN4CCCC4)n3C)cc2)C(=O)C[C@@H](Cc2ccccc2)C(=O)N1C [Compound 25, (2S,5R,8S,13S,16R)-16-benzyl-1-(4-chloro-2-(4-(1-methyl-2-(pyrrolidin-1-ylmethyl)-1H-imidazol-5-yl)phenoxy)benzyl)-8-(4-chlorobenzyl)-5-(fluoromethyl)-2,13,14-trimethyl-1,4,7,11,14-pentaazacyclooctadecane-3,6,10,15,18-pentaone] | 52.86 | 113 |

Further compounds by falling IC50, results first:

| Max % inhibition [%] | IC50 [nM] | Structure (SMILES) |
| --- | --- | --- |
| 93.78 | 65.4 | COC[C@H]1C(=O)N[C@@H](CO)C(=O)N(C)[C@@H](Cc2ccc(Cl)cc2)CC(=O)NC[C@H](C)N(C)C(=O)CCC(=O)N1Cc1ccccc1Oc1ccc(-c2cnc(CN(C)C)n2C)cc1 [Compound 200, (2S,5S,8S,13S)-8-(4-chlorobenzyl)-1-(2-(4-(2-((dimethylamino)methyl)-1-methyl-1H-imidazol-5-yl)phenoxy)benzyl)-5-(hydroxymethyl)-2-(methoxymethyl)-7,13,14-trimethyl-1,4,7,11,14-pentaazacyclooctadecane-3,6,10,15,18-pentaone] |
| 60.93 | 28 | C[C@H]1CNC(=O)C[C@H](Cc2ccc(Cl)cc2)N(C)C(=O)[C@H](CO)NC(=O)[C@H](C)N(Cc2ccc(Cl)cc2Oc2ccc3c(c2)C(=O)N(C2CCNCC2)C3)C(=O)C[C@@H](Cc2ccccc2)C(=O)N1C [Compound 125, (2S,5S,8S,13S,16R)-16-benzyl-1-(4-chloro-2-((3-oxo-2-(piperidin-4-yl)isoindolin-5-yl)oxy)benzyl)-8-(4-chlorobenzyl)-5-(hydroxymethyl)-2,7,13,14-tetramethyl-1,4,7,11,14-pentaazacyclooctadecane-3,6,10,15,18-pentaone] |
| 107.53 | 9.8 | COC[C@@H]1NC(=O)[C@H](C)N(Cc2ccc(Cl)cc2Oc2ccc(-c3cnc(CN(C)C)n3C)cc2)C(=O)C[C@@H](Cc2ccccc2)C(=O)N(C)[C@@H](C(=O)O)CNC(=O)C[C@H](Cc2ccc(Cl)cc2)N(C)C1=O [Compound 177, (2S,5S,8S,13R,16R)-16-benzyl-1-(4-chloro-2-(4-(2-((dimethylamino)methyl)-1-methyl-1H-imidazol-5-yl)phenoxy)benzyl)-8-(4-chlorobenzyl)-5-(methoxymethyl)-2,7,14-trimethyl-3,6,10,15,18-pentaoxo-1,4,7,11,14-pentaazacyclooctadecane-13-carboxylic acid] |
| 98.40 | 1.5 | COC[C@@H]1NC(=O)[C@H](C)N(Cc2ccc(Cl)cc2Oc2ccc(-c3cnc(CN(C)C)n3C)cc2)C(=O)C[C@@H](Cn2cccn2)C(=O)N(C)[C@H]2CCCC[C@@H]2NC(=O)C[C@H](Cc2ccc(Cl)cc2)N(C)C1=O [Compound 253, (4S,7S,10S,16aS,20aS)-14-((1H-pyrazol-1-yl)methyl)-11-(4-chloro-2-(4-(2-((dimethylamino)methyl)-1-methyl-1H-imidazol-5-yl)phenoxy)benzyl)-4-(4-chlorobenzyl)-7-(methoxymethyl)-5,10,16-trimethylhexadecahydrobenzo[l][1,4,7,11,14]pentaazacyclooctadecine-2,6,9,12,15(3H)-pentaone] |
